In the OPERA property sets (Mansouri et al. 2018):
Where a SMILES comes first, the peptide text is derived from it.

`CCN(CC)CCSC(=NO)c1nc(-c2ccccc2)no1` gave a logP of 3.05. Compound `COc1ccc(CCNCC(O)COc2ccc(-c3nc(C(C)(C)C)c[nH]3)cc2)cc1OC` (stereo not given) has a logP of 4.09. `CCCCOc1ccccc1NC(=O)OCCN1CCCCC1` gave a logP of 4.79. With `NC1=NCC(CN2CCN(c3ccccc3F)CC2)O1` (stereo not given) the logP was 1.06. With `CC(C)CC(Nc1ccc([N+](=O)[O-])cc1[N+](=O)[O-])C(=O)O` (stereo not given) the logP was 3.25. With `CC#CC(O)c1c(C)nc2c3c(c(C(=O)N(C)C)cn12)CCC(c1ccccc1)O3` (stereo not given) the logP was 2.7. With `Cc1cc2c(o1)c(C)cc1ccc(=O)oc12` the logP was 2.85. `CC(C)CC(N)C(=O)NC(CC(C)C)C(=O)NC(Cc1ccc(O)cc1)C(=O)O` (stereo not drawn) (H-Leu-Leu-Tyr-OH; configuration not given here) showed a logP of -1.34. `Clc1c2ccccc2cc2ccccc12` gave a logP of 5.27. For `O=C1NC(=O)C(c2ccccc2)(c2ccccc2)N1S(=O)(=O)c1ccc(O)cc1`, the logP was 3.58. Work on `CC(C(=O)OC1CCCCC1)S(=O)(=O)c1ccc([N+](=O)[O-])cc1` (stereo not given) yielded a logP of 2.82. Work on `CC(C)=CCNc1ncnc2c1ncn2[C@@H]1O[C@H](CO)[C@@H](O)[C@H]1O` yielded a logP of 1.3. Work on `CCOP(=O)(OCC)C(C)(C)[N+]([O-])=Cc1ccc(Cl)cc1` yielded a logP of 2.29. For `Cc1cccn2c1nc1ccc(N)nc12`, the logP was 1.75. Work on `CC(C)NCC(O)CN1C(=O)COc2ccccc21` (stereo not given) yielded a logP of 1.45. In the case of `Cc1ccc(S(=O)(=O)C(=Cc2ccccc2)C(=O)OC(C)C)cc1`, the logP is reported as 3.92. Compound `COc1ccc(C2Cc3c(cccc3C(F)(F)F)N(CCN(C)C)C(=O)C2C)cc1` (stereo not given) has a logP of 5.6. For `O=C1C=C(N2CCCCC2)C(=O)N1c1ccc(F)cc1`, the logP was 2.6. For `OC(CNCCCc1ccccc1)CON=C(C1CC1)C1CC1` (stereo not given), the logP was 2.56. For `COCC(O)Cn1c(Br)cnc1[N+](=O)[O-]` (stereo not given), the logP was 0.16. Compound `Cc1cccc(C)c1/C=C/c1c[nH]cn1` has a logP of 3.35. In the case of `CC(=O)O[C@H]1[C@@H](O)C[C@H](O[C@H]2[C@@H](O)C[C@H](O[C@H]3[C@@H](O)C[C@H](O[C@H]4CC[C@@]5(C)[C@H](CC[C@@H]6[C@@H]5C[C@@H](O)[C@]5(C)[C@@H](C7=CC(=O)OC7)CC[C@]65O)C4)O[C@@H]3C)O[C@@H]2C)O[C@@H]1C`, the logP is reported as 2. With `O=C(Cc1ccccc1)Nc1[nH]cnc2ncnc1-2` the logP was 1.19. For `Oc1cc(O)c2c(c1)OC(c1ccc(O)c(O)c1)C(OCCCc1ccccc1)C2` (stereo not given), the logP was 3.78. `Clc1ccc2c(oc3c(Cl)cc(Cl)c(Cl)c32)c1Cl` gave a logP of 6.27. `NC(Cc1ccccc1)C(=O)NC(Cc1ccccc1)C(=O)O` (stereo not drawn) (H-Phe-Phe-OH; configuration not given here) showed a logP of -0.85. Compound `Fc1cccc(CNc2ncnc3nc[nH]c23)c1` has a logP of 2.31. In the case of `NC(Cc1ccc(O)cc1)C(=O)NC(Cc1ccc(O)cc1)C(=O)O` (stereo not drawn) (H-Tyr-Tyr-OH; configuration not given here), the logP is reported as -1.87. Compound `Clc1ccc(N2CCN(CCCOn3nnc4ccccc43)CC2)cc1` has a logP of 4.15. Compound `C#CCC(O)(c1ccc(C(C)C)cc1)c1cccnc1` (stereo not given) has a logP of 2.16. With `O=C(NO)C(Cc1ccccc1)C(=O)NCc1ccc(F)cc1` (stereo not given) the logP was 1.8. `Nc1cccc(Nc2ccccc2C(=O)O)c1` gave a logP of 2.99. Compound `COC(=O)c1cc2cccc3ccc4cccc1c4c32` has a logP of 4.73. `O=C(O)C(c1ccc(-c2ccccc2)cc1)C(O)c1ccccc1` (stereo not given) gave a logP of 3.6. `CC(CO)NC(=O)Cn1ccnc1[N+](=O)[O-]` (stereo not given) showed a logP of -1.02. Work on `CC(C)OC(=O)C1(S(=O)(=O)c2ccc(Cl)cc2)CCCCC1` yielded a logP of 3.49. `O=c1ccc2cc3ccsc3cc2s1` gave a logP of 2.96. `CC(=O)c1ccc([N+](=O)[O-])cc1O` showed a logP of 2.05. Work on `Oc1ccc(CNc2ncnc3nc[nH]c23)cc1` yielded a logP of 1.55. In the case of `CCNc1ccc(NC(=O)N(C)OC)cc1`, the logP is reported as 0.83. Compound `COCCNc1[nH]cnc2ncnc1-2` has a logP of 0.42. `COc1cc(Cl)ccc1O` showed a logP of 2.15. With `O=C(NS(=O)(=O)c1cnccc1NC1CCCCCCC1)N1CCCCC1` the logP was 4.55. Compound `CSC(=S)N1CCCCC1` has a logP of 1.7. Work on `O=[N+]([O-])c1cn(Cc2ccccc2)cn1` yielded a logP of 1.36. With `COc1ccc(CCNCC(O)COc2ccc(Cc3nc(C(C)=O)c[nH]3)cc2)cc1OC` (stereo not given) the logP was 2.3. For `CC(=O)c1ccc(Cl)cc1O`, the logP was 2.97. For `O=C(O)Cc1cc(O)ccc1Nc1c(Cl)cccc1Cl`, the logP was 3.94. In the case of `CCCCCOCCCNc1ncnc2c1ncn2C1OC(CO)C(O)C1O` (stereo not given), the logP is reported as 1.82. In the case of `CC(C)Nc1nc(N)nc(O)n1`, the logP is reported as 1.27. `CCc1c(O)c(=O)ccn1CCCCO` showed a logP of -0.28. Compound `C[N+](C)([O-])CCCC(c1ccccc1)c1ccccc1` has a logP of 1.45. `Brc1cc2cccc3ccc4cccc1c4c32` gave a logP of 5.84. Work on `Cc1ccc(Nc2ccncc2S(=O)(=O)NC(=NC#N)NC(C)C)cc1` yielded a logP of 1.91. In the case of `COc1ccc(CCNCC(O)COc2ccc(-c3nc(Br)c[nH]3)cc2Cl)cc1OC` (stereo not given), the logP is reported as 4.3. With `Clc1cc(Br)cc(Cl)c1N=C1NCCN1` the logP was 2.46. `COP(=O)(OC)Oc1c(Cl)cc(C)cc1Cl` gave a logP of 2.66. With `Cc1cccc(OCC2CN=C(N)O2)c1` (stereo not given) the logP was 1.75. Compound `CCCN(C)CC(=O)Nc1c(C)cccc1C` has a logP of 2.28. Work on `CCNC(=O)Cn1cccc(O)c1=O` yielded a logP of -0.74. Compound `O=C1C=C(N2CCOCC2)CN1c1ccc(Cl)cc1` has a logP of 1.9. Work on `CCN(CCO)CCCOc1cc2ncnc(Nc3cc(CC(=O)Nc4cccc(F)c4)[nH]n3)c2cc1OC` yielded a logP of 3.7. For `CC(C)C(N)C(=O)NCC(=O)NC(Cc1ccccc1)C(=O)NC(Cc1ccccc1)C(=O)O` (stereo not given) (H-VGFF-OH; configuration not given here), the logP was -0.51. `NC(Cc1ccccc1)C(=O)NC(Cc1c[nH]c2ccccc12)C(=O)O` (stereo not given) showed a logP of -0.79. With `Cc1ccc(C)c(OCC2CN=C(N)O2)c1` (stereo not given) the logP was 2.29. With `CC(C)C(=O)OCC(=O)C1(O)C(C)CC2C3CCC4=CC(=O)C=CC4(C)C3(F)C(O)CC21C` (stereo not given) the logP was 3.4. For `O=C(O)CCCCCON=C(c1cccc(C(F)(F)F)c1)c1cnccn1`, the logP was 3.52. `COC(=O)C(C)NP(=O)(OCC1C=CC(n2cc(C)c(=O)[nH]c2=O)O1)Oc1ccc(C#N)cc1` (stereo not given) showed a logP of 0.91. `NC(Cc1ccccc1)C(=O)NC(Cc1ccccc1)C(=O)NCC(=O)NC(Cc1ccccc1)C(=O)O` (stereo not given) (H-FFGF-OH; configuration not given here) showed a logP of 0.17. Work on `CCCCC(=O)C(CCCCOc1cccc(F)c1)n1cncn1` (stereo not given) yielded a logP of 3.42. Compound `CCCOc1ccc(NC(=O)OCCN2CCCCC2)cc1` has a logP of 4.2. With `CCCC(=NOCC)C1=C(O)CC2(CC(C)CC(C)C2)OC1=O` (stereo not given) the logP was 4.47. Work on `c1cc2ccc1CCc1ccc(cc1)CC2` yielded a logP of 4.33. In the case of `CC(=NNC(=O)c1ccc(N)cc1)c1cnccn1`, the logP is reported as 1.3. `OCC1OC(n2cnc3c(NCc4ccccc4)ncnc32)C(O)C1O` (stereo not given) showed a logP of 1.23. `CCNC(=S)NS(=O)(=O)c1cnccc1NC1CCCCC1` showed a logP of 3.1. With `CC(=O)OCOC(=O)N(C)N=Nc1ccc(Br)cc1` the logP was 3.64. For `Nc1ccno1`, the logP was -0.47. In the case of `CC(NC(=O)C(Cc1ccccc1)NC(=O)C(N)Cc1c[nH]c2ccccc12)C(=O)O` (stereo not drawn) (H-Trp-Phe-Ala-OH; configuration not given here), the logP is reported as -1. Work on `CC1CC2C3CCC4=CC(=O)C=CC4(C)C3(F)C(O)CC2(C)C1(O)C(=O)COC(=O)C1CCCCC1` (stereo not given) yielded a logP of 4.46. Compound `CCNC(=NC#N)NS(=O)(=O)c1cnccc1NC1CCCCC1` has a logP of 0.94. For `CCN(CC)c1ccc(-n2c(C(F)(F)F)nn(C)c2=S)cc1`, the logP was 3.79. With `C=CCNC(=O)N(CCCCC(NC(C)=O)C(=O)NCc1ccccc1)Cc1ccccc1` (stereo not given) the logP was 1.98. `CC(N)C(=O)N1CCCC1C(=O)O` (stereo not given) showed a logP of -2.71. In the case of `COc1cc(OC)c2c(c1)OC(c1ccc(OC)c(OC)c1)C(O)C2` (stereo not given), the logP is reported as 3.1. With `Cc1nc2ccccc2c(=O)n1CCC(=O)O` the logP was 0.93. For `CC(C)C(N)C(=O)NC(Cc1ccccc1)C(=O)NC(Cc1ccc(O)cc1)C(=O)O` (stereo not given), the logP was -1.5. Compound `Nc1nc(N)c2c(N3CCCCC3)cccc2n1` has a logP of 2.66. Work on `O=C1c2ccccc2-c2nncc(-c3ccccc3)c21` yielded a logP of 2.8. `CCCOc1ccccc1NC(=O)OCCN1CCCCC1` gave a logP of 4.23. `CCCC(=NOCC)C1=C(O)CC2(CCSCC2)OC1=O` gave a logP of 2.9. `COC1Cc2c(O)cc(O)cc2OC1c1ccc(O)c(O)c1` (stereo not given) showed a logP of 1. In the case of `NC(=O)C(CCN1CCCCC1)c1ccccc1Cl` (stereo not given), the logP is reported as 2.46. For `S=c1nccc[nH]1`, the logP was -1.11. Compound `COC(=O)C(C)=CC1C(C(=O)OCc2cccc(OCc3ccccc3)c2)C1(C)C` (stereo not given) has a logP of 6.06. For `Cc1cc2c(s1)Nc1ccccc1N=C2N1CCN(C)CC1`, the logP was 3. With `Clc1cccc(N2CCN(CCn3nnc4ccccc43)CC2)c1` the logP was 3.45. `OCCCCNc1[nH]cnc2ncnc1-2` gave a logP of 0.32. For `CC(C)(C)SSc1ncc[nH]1`, the logP was 2.56. Compound `Nc1nc(N)c2c(Br)cccc2n1` has a logP of 1.91. `CC(C)NC(=NC#N)NS(=O)(=O)c1cnccc1Nc1cccc(F)c1` gave a logP of 1.59. In the case of `O=[N+]([O-])c1cccc(CNc2ncnc3nc[nH]c23)c1`, the logP is reported as 2.03. Compound `CCC(=O)NCc1c(O)c(=O)cc(C)n1C` has a logP of -0.72. With `CCCN(CCCCC(NC(C)=O)C(=O)NCc1ccccc1)C(=O)NCCCl` (stereo not given) the logP was 1.13. Compound `O=C(Nc1ccccc1C(=O)O)c1ccccc1O` has a logP of 3.94. Work on `CC(C)CC(N)C(=O)NC(CC(C)C)C(=O)NC(CC(C)C)C(=O)N1CCCC1C(=O)O` (stereo not given) (H-LLLP-OH; configuration not given here) yielded a logP of -1.18. Work on `CCCCCCC(=O)Oc1ccc2c3c1OC1C(OS(=O)(=O)O)C=CC4C(C2)N(C)CCC341` (stereo not given) yielded a logP of 0.36. With `O=[N+]([O-])c1ccc(CSc2ncnc3c2ncn3C2OC(CO)C(O)C2O)cc1` (stereo not given) the logP was 0.54. Work on `O=C(NO)NN=Cc1cccc(C(F)(F)F)c1` yielded a logP of 1.64. `CC(C)NC(=NC#N)NS(=O)(=O)c1cnccc1NC1CCCCCCCCCCC1` showed a logP of 4.51. Work on `CC(=O)Oc1coc(CBr)cc1=O` yielded a logP of 0.51. In the case of `CC(=O)Oc1ccccc1C(=O)OC1Cc2c(O)cc(O)cc2OC1c1ccc(O)c(O)c1` (stereo not given), the logP is reported as 2.87. Work on `Cc1ccc(OC(=O)CNC(=O)c2ccccc2)c(C)c1` yielded a logP of 3.4. For `S=C=NCCCCCCCCCCc1ccccc1`, the logP was 6.82. With `CCCCOC(NC(=O)c1ccccc1O)C(Cl)(Cl)Cl` (stereo not given) the logP was 4.45. Work on `CCOC(=O)C(=Cc1ccccc1)S(=O)(=O)c1ccc([N+](=O)[O-])cc1` yielded a logP of 3.2. Compound `CCC(C)C(N)C(=O)NC(C(=O)O)C(C)CC` (stereo not drawn) (H-Ile-Ile-OH; configuration not given here) has a logP of -1.82. `CC1=C(CC(=O)O)c2cc(F)ccc2C1=Cc1ccc(S(C)(=O)=O)cc1` gave a logP of 3.29. With `COc1cc(NS(C)(=O)=O)ccc1-c1cn2cccnc2n1` the logP was 0.72. `CNc1ncnc2c1ncn2C1OC(CO)C(O)C1O` (stereo not given) showed a logP of -0.52.
